Experimental data taken from patent US10597388B2, “Pyridazinone herbicides” (FMC CORPORATION, priority 2014, dated 2020).

Key:
Assay in all cases: Test C greenhouse herbicide test, pre- and postemergence
Format in all cases: in vivo
[1] = test system: blackgrass (Alopecurus myosuroides)
Procedure, shortened: (§1)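 Pre- and postemergence greenhouse screen; values are visual control ratings, 0 meaning no effect and 100 complete kill, assigned relative to untreated plants after 13 to 15 d.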

[2] = test system: crabgrass, large (large crabgrass, Digitaria sanguinalis)
Procedure, shortened: as §1

[3] = test system: morningglory (Ipomoea coccinea)
Procedure, shortened: as §1

[4] = test system: ryegrass, Italian (Italian ryegrass, Lolium multiflorum)
Procedure, shortened: as §1

[5] = test system: nutsedge, yellow (yellow nutsedge, Cyperus esculentus)
Procedure, shortened: as §1

[6] = test system: waterhemp (common waterhemp, Amaranthus rudis)
Procedure, shortened: as §1

[7] = test system: pigweed (Amaranthus retroflexus)
Procedure, shortened: as §1

[8] = test system: foxtail, giant (giant foxtail, Setaria faberii)
Procedure, shortened: as §1

[9] = test system: velvetleaf (Abutilon theophrasti)
Procedure, shortened: as §1

[10] = test system: soybean (Glycine max)
Procedure, shortened: as §1

[11] = test system: galium (catchweed bedstraw, Galium aparine)
Procedure, shortened: as §1

[12] = test system: oilseed rape (Brassica napus)
Procedure, shortened: as §1

[13] = test system: wheat (winter wheat, Triticum aestivum)
Procedure, shortened: as §1

[14] = test system: johnsongrass (Sorghum halepense)
Procedure, shortened: as §1

[15] = test system: corn (Zea mays)
Procedure, shortened: as §1

[16] = test system: lambsquarters (Chenopodium album)
Procedure, shortened: as §1

[17] = Postemergence, 31 g ai/ha, 0 to 100 scale (0 no effect, 100 complete control)
[18] = Postemergence, 125 g ai/ha, scale 0 to 100, 0 is no effect, 100 is complete control
[19] = Postemergence, 250 g ai/ha, scale 0 to 100, 0 no effect, 100 complete control, 13 to 15 d
[20] = Preemergence, 31 g ai/ha, scale 0 to 100, 0 is no effect, 100 is complete control
[21] = Preemergence, 62 g ai/ha, scale 0 to 100, 0 is no effect, 100 is complete control
[22] = Preemergence, 125 g ai/ha, scale 0 to 100, 0 is no effect, 100 is complete control
[23] = Preemergence, 250 g ai/ha, scale 0 to 100 (0 no effect, 100 complete control)
[24] = postemergence, 62 g ai/ha, scale 0 to 100, 0 no effect, 100 complete control

## COc1nn(C)c(=O)c(-c2c(C)ccc3ccccc23)c1OC(=O)OC(C)C [Compound 36]
[1]; [17]
  Blackgrass plant response rating: 5
[1]; [18]
  Plant response rating, Blackgrass: 5
[1]; [19]
  Plant response rating, Blackgrass: 20
[1]; [20]
  Plant response rating, Blackgrass: 0
[1]; [21]
  Plant response rating, Blackgrass: 30
[1]; [22]
  Plant response rating, Blackgrass: 20
[1]; [23]
  Blackgrass plant response rating: 30
[1]; [24]
  Blackgrass plant response rating: 5
[2]; [17]
  Crabgrass, Large plant response rating: 25
[2]; [18]
  Plant response rating, Crabgrass, Large: 25
[2]; [19]
  Plant response rating, Crabgrass, Large: 35
[2]; [20]
  Plant response rating, Crabgrass, Large: 70
[2]; [21]
  Plant response rating, Crabgrass, Large: 20
[2]; [22]
  Plant response rating, Crabgrass, Large: 20
[2]; [23]
  Crabgrass, Large plant response rating: 65
[2]; [24]
  Crabgrass, Large plant response rating: 30
[3]; [17]
  Morningglory plant response rating: 90
[3]; [18]
  Plant response rating, Morningglory: 98
[3]; [19]
  Plant response rating, Morningglory: 100
[3]; [20]
  Plant response rating, Morningglory: 80
[3]; [21]
  Plant response rating, Morningglory: 80
[3]; [22]
  Plant response rating, Morningglory: 90
[3]; [23]
  Morningglory plant response rating: 95
[3]; [24]
  Morningglory plant response rating: 98
[4]; [17]
  Ryegrass, Italian plant response rating: 55
[4]; [18]
  Plant response rating, Ryegrass, Italian: 60
[4]; [19]
  Plant response rating, Ryegrass, Italian: 80
[4]; [20]
  Plant response rating, Ryegrass, Italian: 30
[4]; [21]
  Plant response rating, Ryegrass, Italian: 30
[4]; [22]
  Plant response rating, Ryegrass, Italian: 35
[4]; [23]
  Ryegrass, Italian plant response rating: 85
[4]; [24]
  Ryegrass, Italian plant response rating: 60
[5]; [17]
  Nutsedge, Yellow plant response rating: 20
[5]; [18]
  Plant response rating, Nutsedge, Yellow: 55
[5]; [19]
  Plant response rating, Nutsedge, Yellow: 65
[5]; [20]
  Plant response rating, Nutsedge, Yellow: 10
[5]; [21]
  Plant response rating, Nutsedge, Yellow: 20
[5]; [22]
  Plant response rating, Nutsedge, Yellow: 20
[5]; [23]
  Nutsedge, Yellow plant response rating: 65
[5]; [24]
  Nutsedge, Yellow plant response rating: 40
[6]; [17]
  Waterhemp plant response rating: 85
[6]; [18]
  Plant response rating, Waterhemp: 95
[6]; [19]
  Plant response rating, Waterhemp: 98
[6]; [20]
  Plant response rating, Waterhemp: 100
[6]; [21]
  Plant response rating, Waterhemp: 100
[6]; [22]
  Plant response rating, Waterhemp: 100
[6]; [23]
  Waterhemp plant response rating: 100
[6]; [24]
  Waterhemp plant response rating: 95
[7]; [17]
  Pigweed plant response rating: 70
[7]; [18]
  Plant response rating, Pigweed: 95
[7]; [19]
  Plant response rating, Pigweed: 100
[7]; [20]
  Plant response rating, Pigweed: 90
[7]; [21]
  Plant response rating, Pigweed: 100
[7]; [22]
  Plant response rating, Pigweed: 100
[7]; [23]
  Pigweed plant response rating: 100
[7]; [24]
  Pigweed plant response rating: 85
[8]; [17]
  Foxtail, Giant plant response rating: 30
[8]; [18]
  Plant response rating, Foxtail, Giant: 70
[8]; [19]
  Plant response rating, Foxtail, Giant: 80
[8]; [20]
  Plant response rating, Foxtail, Giant: 75
[8]; [21]
  Plant response rating, Foxtail, Giant: 75
[8]; [22]
  Plant response rating, Foxtail, Giant: 85
[8]; [23]
  Foxtail, Giant plant response rating: 85
[8]; [24]
  Foxtail, Giant plant response rating: 55
[9]; [17]
  Velvetleaf plant response rating: 65
[9]; [18]
  Plant response rating, Velvetleaf: 95
[9]; [19]
  Plant response rating, Velvetleaf: 95
[9]; [20]
  Plant response rating, Velvetleaf: 55
[9]; [21]
  Plant response rating, Velvetleaf: 80
[9]; [22]
  Plant response rating, Velvetleaf: 85
[9]; [23]
  Velvetleaf plant response rating: 90
[9]; [24]
  Velvetleaf plant response rating: 85
[10]; [17]
  Soybean plant response rating: 0
[10]; [18]
  Plant response rating, Soybean: 5
[10]; [19]
  Plant response rating, Soybean: 15
[10]; [20]
  Plant response rating, Soybean: 100
[10]; [21]
  Plant response rating, Soybean: 0
[10]; [22]
  Plant response rating, Soybean: 30
[10]; [23]
  Soybean plant response rating: 20
[10]; [24]
  Soybean plant response rating: 0
[11]; [17]
  Galium plant response rating: 90
[11]; [18]
  Plant response rating, Galium: 95
[11]; [19]
  Plant response rating, Galium: 95
[11]; [20]
  Plant response rating, Galium: 100
[11]; [21]
  Plant response rating, Galium: 100
[11]; [22]
  Plant response rating, Galium: 100
[11]; [23]
  Galium plant response rating: 100
[11]; [24]
  Galium plant response rating: 95
[12]; [17]
  Oilseed Rape plant response rating: 40
[12]; [18]
  Plant response rating, Oilseed Rape: 50
[12]; [19]
  Plant response rating, Oilseed Rape: 90
[12]; [20]
  Plant response rating, Oilseed Rape: 50
[12]; [21]
  Plant response rating, Oilseed Rape: 60
[12]; [22]
  Plant response rating, Oilseed Rape: 60
[12]; [23]
  Oilseed Rape plant response rating: 95
[12]; [24]
  Oilseed Rape plant response rating: 40
[13]; [17]
  Wheat plant response rating: 0
[13]; [18]
  Plant response rating, Wheat: 0
[13]; [19]
  Plant response rating, Wheat: 5
[13]; [20]
  Plant response rating, Wheat: 0
[13]; [21]
  Plant response rating, Wheat: 0
[13]; [22]
  Plant response rating, Wheat: 0
[13]; [23]
  Wheat plant response rating: 0
[13]; [24]
  Wheat plant response rating: 0
[14]; [17]
  Johnsongrass plant response rating: 0
[14]; [18]
  Plant response rating, Johnsongrass: 5
[14]; [19]
  Plant response rating, Johnsongrass: 5
[14]; [20]
  Plant response rating, Johnsongrass: 0
[14]; [21]
  Plant response rating, Johnsongrass: 5
[14]; [22]
  Plant response rating, Johnsongrass: 5
[14]; [23]
  Johnsongrass plant response rating: 5
[14]; [24]
  Johnsongrass plant response rating: 5
[15]; [17]
  Corn plant response rating: 0
[15]; [18]
  Plant response rating, Corn: 5
[15]; [19]
  Plant response rating, Corn: 5
[15]; [20]
  Plant response rating, Corn: 0
[15]; [21]
  Plant response rating, Corn: 0
[15]; [22]
  Plant response rating, Corn: 0
[15]; [23]
  Corn plant response rating: 0
[15]; [24]
  Corn plant response rating: 0
[16]; [17]
  Lambsquarters plant response rating: 90
[16]; [18]
  Plant response rating, Lambsquarters: 98
[16]; [19]
  Plant response rating, Lambsquarters: 100
[16]; [20]
  Plant response rating, Lambsquarters: 70
[16]; [21]
  Plant response rating, Lambsquarters: 80
[16]; [22]
  Plant response rating, Lambsquarters: 85
[16]; [23]
  Lambsquarters plant response rating: 80
[16]; [24]
  Lambsquarters plant response rating: 98
